Legend:
[1] = molecular target: T1, human α1G T-type channels (Homo sapiens, UniProt O43497); test: T-type calcium channel block, whole cell patch clamp (α1G); assay type: cell-based; details: HEK cells stably expressing human α1G; mainly non-inactivated protocol; values above 10 μM represented as 10 μM, values below 0.30 μM represented as 0.30 μM
T1 construct: expressed in transfected cells; host or cells: HEK 293
How it was run: (§1)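 Whole-cell patch clamp was run on HEK293 cells stably expressing human α1G or α1H. Cells were held at −110 mV and given a 1 s pre-pulse to −100 mV (non-inactivating protocol) before a 50 ms test pulse to −40 mV. Compounds were applied by gravity in external solution with 0.1-0.01% DMSO, and IC50 values are in μM, capped at 10 μM.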

[2] = molecular target: T2, human α1H T-type channels (Homo sapiens, UniProt O95180); test: T-type calcium channel block, whole cell patch clamp (α1H); assay type: cell-based; details: HEK cells stably expressing human α1H; mainly non-inactivated protocol; values above 10 μM represented as 10 μM
T2 construct: expressed in transfected cells; host or cells: HEK 293
T2 sequence (O95180 whole entry): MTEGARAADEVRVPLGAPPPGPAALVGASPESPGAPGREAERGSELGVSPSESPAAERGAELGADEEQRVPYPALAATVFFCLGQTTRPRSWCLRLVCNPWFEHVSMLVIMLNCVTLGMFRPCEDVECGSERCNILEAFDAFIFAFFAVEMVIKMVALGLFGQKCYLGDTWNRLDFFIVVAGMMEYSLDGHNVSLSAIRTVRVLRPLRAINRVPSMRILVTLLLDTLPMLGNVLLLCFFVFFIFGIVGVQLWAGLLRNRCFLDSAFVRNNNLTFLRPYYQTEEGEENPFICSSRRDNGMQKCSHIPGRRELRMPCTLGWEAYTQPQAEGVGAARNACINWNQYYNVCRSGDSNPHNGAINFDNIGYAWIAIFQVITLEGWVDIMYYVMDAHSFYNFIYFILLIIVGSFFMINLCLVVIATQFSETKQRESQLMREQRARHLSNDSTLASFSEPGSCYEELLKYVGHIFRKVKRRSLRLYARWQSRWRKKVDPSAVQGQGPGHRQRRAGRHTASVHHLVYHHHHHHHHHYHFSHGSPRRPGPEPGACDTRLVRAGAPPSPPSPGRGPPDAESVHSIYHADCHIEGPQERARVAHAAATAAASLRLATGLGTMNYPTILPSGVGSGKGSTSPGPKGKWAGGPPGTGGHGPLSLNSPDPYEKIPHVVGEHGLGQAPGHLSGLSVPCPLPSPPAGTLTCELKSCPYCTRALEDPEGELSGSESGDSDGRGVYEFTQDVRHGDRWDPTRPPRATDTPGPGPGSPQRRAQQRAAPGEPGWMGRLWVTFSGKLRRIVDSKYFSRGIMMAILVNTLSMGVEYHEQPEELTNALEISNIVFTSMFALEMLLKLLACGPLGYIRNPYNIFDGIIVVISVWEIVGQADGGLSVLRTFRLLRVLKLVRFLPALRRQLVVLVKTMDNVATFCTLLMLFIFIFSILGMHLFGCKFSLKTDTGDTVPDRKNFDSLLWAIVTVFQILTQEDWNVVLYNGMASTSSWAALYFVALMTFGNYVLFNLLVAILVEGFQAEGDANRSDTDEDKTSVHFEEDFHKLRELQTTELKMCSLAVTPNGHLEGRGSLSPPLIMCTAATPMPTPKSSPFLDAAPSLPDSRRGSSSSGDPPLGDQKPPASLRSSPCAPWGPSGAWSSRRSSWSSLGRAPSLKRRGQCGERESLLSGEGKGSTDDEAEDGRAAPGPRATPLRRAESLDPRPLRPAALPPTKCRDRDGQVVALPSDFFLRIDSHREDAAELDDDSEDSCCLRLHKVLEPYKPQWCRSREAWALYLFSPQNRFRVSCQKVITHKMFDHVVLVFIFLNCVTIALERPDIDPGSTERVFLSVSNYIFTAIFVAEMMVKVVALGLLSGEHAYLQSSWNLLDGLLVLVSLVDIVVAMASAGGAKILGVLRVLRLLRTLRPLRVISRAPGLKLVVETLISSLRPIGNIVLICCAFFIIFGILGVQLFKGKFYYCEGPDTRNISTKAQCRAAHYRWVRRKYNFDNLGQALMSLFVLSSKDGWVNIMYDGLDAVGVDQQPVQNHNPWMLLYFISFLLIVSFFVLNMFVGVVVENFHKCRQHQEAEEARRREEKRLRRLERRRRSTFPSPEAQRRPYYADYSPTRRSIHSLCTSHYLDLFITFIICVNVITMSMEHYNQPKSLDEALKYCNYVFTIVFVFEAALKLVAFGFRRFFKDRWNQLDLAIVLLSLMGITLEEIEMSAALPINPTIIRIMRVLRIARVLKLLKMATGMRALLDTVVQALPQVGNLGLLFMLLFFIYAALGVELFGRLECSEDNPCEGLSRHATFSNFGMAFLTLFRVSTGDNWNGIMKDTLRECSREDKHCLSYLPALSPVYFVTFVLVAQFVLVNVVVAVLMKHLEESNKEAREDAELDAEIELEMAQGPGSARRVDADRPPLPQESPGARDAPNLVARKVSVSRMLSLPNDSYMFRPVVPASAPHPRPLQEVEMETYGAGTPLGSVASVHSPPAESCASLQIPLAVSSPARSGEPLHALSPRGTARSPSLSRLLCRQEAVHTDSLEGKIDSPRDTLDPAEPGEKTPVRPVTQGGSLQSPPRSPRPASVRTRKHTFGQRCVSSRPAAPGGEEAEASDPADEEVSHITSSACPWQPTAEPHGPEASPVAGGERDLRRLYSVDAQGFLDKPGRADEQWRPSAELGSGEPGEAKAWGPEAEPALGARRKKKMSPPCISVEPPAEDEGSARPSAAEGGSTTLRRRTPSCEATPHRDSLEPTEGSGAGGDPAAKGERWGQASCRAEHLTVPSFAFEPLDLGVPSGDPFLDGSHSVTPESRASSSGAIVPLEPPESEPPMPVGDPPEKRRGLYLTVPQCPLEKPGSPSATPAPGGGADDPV
How it was run: as §1

T1 sequence (O43497 whole entry): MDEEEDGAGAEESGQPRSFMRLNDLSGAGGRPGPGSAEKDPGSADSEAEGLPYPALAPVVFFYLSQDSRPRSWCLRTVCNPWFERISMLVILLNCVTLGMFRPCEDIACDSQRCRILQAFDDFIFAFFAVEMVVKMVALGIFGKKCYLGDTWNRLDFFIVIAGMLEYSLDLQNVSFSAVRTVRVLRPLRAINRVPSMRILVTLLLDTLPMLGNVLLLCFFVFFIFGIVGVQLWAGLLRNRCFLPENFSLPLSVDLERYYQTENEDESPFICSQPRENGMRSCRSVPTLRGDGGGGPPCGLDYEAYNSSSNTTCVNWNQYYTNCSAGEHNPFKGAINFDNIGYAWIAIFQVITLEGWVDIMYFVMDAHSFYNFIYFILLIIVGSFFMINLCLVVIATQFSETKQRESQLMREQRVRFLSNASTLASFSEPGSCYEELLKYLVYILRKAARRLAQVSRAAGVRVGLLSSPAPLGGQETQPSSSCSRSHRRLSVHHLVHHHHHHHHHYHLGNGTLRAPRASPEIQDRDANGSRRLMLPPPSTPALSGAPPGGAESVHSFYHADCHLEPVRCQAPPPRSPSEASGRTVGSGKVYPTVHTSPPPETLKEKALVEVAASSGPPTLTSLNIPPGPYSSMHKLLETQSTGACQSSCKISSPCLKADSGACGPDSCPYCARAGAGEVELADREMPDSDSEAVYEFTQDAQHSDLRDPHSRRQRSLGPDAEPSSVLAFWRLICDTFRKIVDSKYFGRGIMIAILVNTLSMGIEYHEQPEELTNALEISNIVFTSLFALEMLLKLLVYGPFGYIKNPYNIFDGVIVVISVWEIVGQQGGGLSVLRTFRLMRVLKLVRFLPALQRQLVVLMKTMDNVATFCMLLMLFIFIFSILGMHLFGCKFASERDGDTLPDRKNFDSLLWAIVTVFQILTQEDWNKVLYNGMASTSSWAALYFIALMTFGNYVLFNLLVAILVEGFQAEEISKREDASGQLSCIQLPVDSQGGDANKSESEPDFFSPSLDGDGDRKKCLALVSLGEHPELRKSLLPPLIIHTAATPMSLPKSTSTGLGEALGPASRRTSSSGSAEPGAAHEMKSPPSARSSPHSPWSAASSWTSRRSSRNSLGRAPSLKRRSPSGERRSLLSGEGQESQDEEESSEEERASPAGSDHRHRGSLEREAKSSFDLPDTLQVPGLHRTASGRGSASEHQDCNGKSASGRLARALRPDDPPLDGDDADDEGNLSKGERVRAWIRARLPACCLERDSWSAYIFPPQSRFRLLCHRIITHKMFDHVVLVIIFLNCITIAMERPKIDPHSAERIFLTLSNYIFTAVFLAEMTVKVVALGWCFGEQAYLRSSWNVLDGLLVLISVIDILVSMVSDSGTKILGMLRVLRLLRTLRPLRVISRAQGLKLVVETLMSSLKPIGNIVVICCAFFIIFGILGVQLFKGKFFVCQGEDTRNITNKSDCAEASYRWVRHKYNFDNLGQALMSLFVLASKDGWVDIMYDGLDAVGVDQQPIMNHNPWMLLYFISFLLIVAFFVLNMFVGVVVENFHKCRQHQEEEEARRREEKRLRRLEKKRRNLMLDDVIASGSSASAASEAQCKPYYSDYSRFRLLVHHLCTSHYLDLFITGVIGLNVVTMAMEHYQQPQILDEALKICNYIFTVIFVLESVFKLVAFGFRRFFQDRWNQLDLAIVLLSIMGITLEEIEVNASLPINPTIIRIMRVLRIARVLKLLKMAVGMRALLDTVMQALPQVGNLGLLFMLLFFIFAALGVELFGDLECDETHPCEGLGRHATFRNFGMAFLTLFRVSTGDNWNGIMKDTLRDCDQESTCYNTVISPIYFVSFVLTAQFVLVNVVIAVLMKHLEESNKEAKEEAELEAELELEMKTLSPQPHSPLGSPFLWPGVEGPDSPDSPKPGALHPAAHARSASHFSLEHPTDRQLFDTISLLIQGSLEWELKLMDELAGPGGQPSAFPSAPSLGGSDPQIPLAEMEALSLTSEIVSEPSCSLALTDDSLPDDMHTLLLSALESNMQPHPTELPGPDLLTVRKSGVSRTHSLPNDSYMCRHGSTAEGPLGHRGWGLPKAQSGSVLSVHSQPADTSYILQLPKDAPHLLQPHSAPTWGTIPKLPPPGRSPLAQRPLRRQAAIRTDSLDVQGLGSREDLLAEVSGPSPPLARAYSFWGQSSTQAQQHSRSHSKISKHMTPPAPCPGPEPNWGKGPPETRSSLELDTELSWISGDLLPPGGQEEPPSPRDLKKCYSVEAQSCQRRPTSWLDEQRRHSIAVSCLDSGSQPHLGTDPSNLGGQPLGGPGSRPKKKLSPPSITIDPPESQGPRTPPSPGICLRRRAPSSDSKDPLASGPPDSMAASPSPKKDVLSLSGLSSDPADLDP

| SMILES | IC50 [1] | IC50 [2] |
| --- | --- | --- |
| O=C(C[C@H]1CC[C@H](NC(=O)[C@@H]2C[C@@H](c3ccccc3)CN2)CC1)Nc1cc(C(F)(F)F)cc(C(F)(F)F)c1 [Compound 123, (2S,4S)-N-(trans-4-(2-(3,5-bis(trifluoromethyl)phenylamino)-2-oxoethyl)cyclohexyl)-4-phenylpyrrolidine-2-carboxamide] | ≤ 300 nM | 2950 nM |
| O=C(NC[C@H]1CC[C@H](NC(=O)[C@H]2CC[C@@H](c3ccccc3)N2)CC1)c1cc(C(F)(F)F)cc(C(F)(F)F)c1 [Compound 137, (2R,5S)-N-(trans-4-((3,5-bis(trifluoromethyl)benzamido)methyl)cyclohexyl)-5-phenylpyrrolidine-2-carboxamide] | 700 nM | 7850 nM |
| O=C(CN[C@H]1CC[C@H](CNC(=O)c2cc(C(F)(F)F)cc(C(F)(F)F)c2)CC1)NN1CCCCC1 [Compound 60, N-((trans-4-(2-oxo-2-(piperidin-1-ylamino)ethylamino)cyclohexyl)methyl)-3,5-bis(trifluoromethyl)benzamide] | 1300 nM | 1890 nM |
| CC(C)(C)C(O)CN[C@H]1CC[C@H](CNC(=O)c2cc(C(F)(F)F)cc(C(F)(F)F)c2)CC1 (stereo partly drawn) [Compound 3, N-((trans-4-(2-hydroxy-3,3-dimethylbutylamino)cyclohexyl)methyl)-3,5-bis(trifluoromethyl)benzamide] | 470 nM | 1020 nM |
| COc1ccc(CN[C@H]2CC[C@@H](CNC(=O)c3cc(F)cc(C(F)(F)F)c3)CC2)c(OC)c1 [Compound 24, N-((cis-4-(2,4-dimethoxybenzylamino)cyclohexyl)methyl)-3-fluoro-5-(trifluoromethyl)benzamide] | 340 nM | 590 nM |
| CC1CCCCN1C(=O)CN[C@H]1CC[C@@H](CNC(=O)c2cc(C(F)(F)F)cc(C(F)(F)F)c2)CC1 (stereo partly drawn) [Compound 72, N-((cis-4-(2-(2-methylpiperidin-1-yl)-2-oxoethylamino)cyclohexyl)methyl)-3,5-bis(trifluoromethyl)benzamide] | ≤ 300 nM | 230 nM |
| CC(C)CNC(=O)CN[C@H]1CC[C@H](CNC(=O)c2cc(C(F)(F)F)cc(C(F)(F)F)c2)CC1 [Compound 75, N-((trans-4-(2-(isobutylamino)-2-oxoethylamino)cyclohexyl)methyl)-3,5-bis(trifluoromethyl)benzamide] | 810 nM | 430 nM |
| CC(C)(C)c1nc(CN[C@H]2CC[C@@H](CNC(=O)c3cc(C(F)(F)F)cc(C(F)(F)F)c3)CC2)no1 [Compound 51, N-((cis-4-((5-tert-butyl-1,2,4-oxadiazol-3-yl)methylamino)cyclohexyl)methyl)-3,5-bis(trifluoromethyl)benzamide] | 1150 nM | 820 nM |
| Cc1ccc(-c2csc(NC(=O)C[C@H]3CC[C@H](NCC(O)(C(F)(F)F)C(F)(F)F)CC3)n2)cc1 [Compound 151, N-(4-p-tolylthiazol-2-yl)-2-(trans-4-(3,3,3-trifluoro-2-hydroxy-2-(trifluoromethyl)propylamino)cyclohexyl)acetamide] | 480 nM | ≥ 10000 nM |
| O=C(C[C@H]1CC[C@H](NC(=O)C2(c3ccccc3)CCNCC2)CC1)Nc1cc(C(F)(F)F)cc(C(F)(F)F)c1 [Compound 121, (S)-N-(trans-4-(2-(3,5-bis(trifluoromethyl)phenylamino)-2-oxoethyl)cyclohexyl)-4-phenylpiperidine-4-carboxamide] | 610 nM | ≥ 10000 nM |
| COc1cc(F)cc(C(=O)NC[C@H]2CC[C@H](NCC(=O)N(C)C(C)(C)C)CC2)c1 [Compound 210, N-(((1r,4r)-4-(2-(tert-butyl(methyl)amino)-2-oxoethylamino)cyclohexyl)methyl)-3-fluoro-5-methoxybenzamide] | 5610 nM | 2390 nM |
| O=C(NC[C@H]1CC[C@H](NCC(=O)N2CCC(F)(F)C2)CC1)c1cc(C(F)(F)F)cc(C(F)(F)F)c1 [Compound 61, N-((trans-4-(2-(3,3-difluoropyrrolidin-1-yl)-2-oxoethylamino)cyclohexyl)methyl)-3,5-bis(trifluoromethyl)benzamide] | 1590 nM | 1730 nM |
| CCC(C)NC(=O)CN[C@H]1CC[C@@H](CNC(=O)c2cc(C(F)(F)F)cc(C(F)(F)F)c2)CC1 (stereo partly drawn) [Compound 71, N-((cis-4-(2-(sec-butylamino)-2-oxoethylamino)cyclohexyl)methyl)-3,5-bis(trifluoromethyl)benzamide] | ≤ 300 nM | 270 nM |
| COc1cc(F)cc(C(=O)NC[C@H]2CC[C@@H](NCC(=O)N(C)C(C)(C)C)CC2)c1 [Compound 200, N-(((1s,4s)-4-(2-(tert-butyl(methyl)amino)-2-oxoethylamino)cyclohexyl)methyl)-3-fluoro-5-methoxybenzamide] | 3350 nM | 470 nM |
| Cc1ccc(-c2csc(NC(=O)C[C@H]3CC[C@@H](NC(=O)C4(c5ccccc5)CCNCC4)CC3)n2)cc1 [Compound 132, N-(cis-4-(2-oxo-2-(4-p-tolylthiazol-2-ylamino)ethyl)cyclohexyl)-4-phenylpiperidine-4-carboxamide] | 1090 nM | ≥ 10000 nM |
| COc1cc(F)cc(C(=O)NC[C@H]2CC[C@@H](NCC(=O)N3CCCC3(C)C)CC2)c1 [Compound 199, N-(((1s,4s)-4-(2-(2,2-dimethylpyrrolidin-1-yl)-2-oxoethylamino)cyclohexyl)methyl)-3-fluoro-5-methoxybenzamide] | 3800 nM | 350 nM |
| COc1cc(F)cc(C(=O)NC[C@H]2CC[C@H](NCC(=O)NC(C)(C)C)CC2)c1 [Compound 206, N-(((1r,4r)-4-(2-(tert-butylamino)-2-oxoethylamino)cyclohexyl)methyl)-3-fluoro-5-methoxybenzamide] | 4420 nM | 1030 nM |
| O=C(CN[C@H]1CC[C@H](CNC(=O)c2cc(C(F)(F)F)cc(C(F)(F)F)c2)CC1)NCC(F)(F)F [Compound 58, N-((trans-4-(2-oxo-2-(2,2,2-trifluoroethylamino)ethylamino)cyclohexyl)methyl)-3,5-bis(trifluoromethyl)benzamide] | 1000 nM | 530 nM |
| O=C(CN[C@H]1CC[C@@H](CNC(=O)c2cc(C(F)(F)F)cc(C(F)(F)F)c2)CC1)NCC(F)(F)F [Compound 43, N-((cis-4-(2-oxo-2-(2,2,2-trifluoroethylamino)ethylamino)cyclohexyl)methyl)-3,5-bis(trifluoromethyl)benzamide] | 910 nM | 450 nM |
| COCC(C)(C)N(C)C(=O)CN[C@H]1CC[C@@H](CNC(=O)c2cc(F)cc(Cl)c2)CC1 [Compound 212, 3-chloro-5-fluoro-N-(((1s,4s)-4-(2-((1-methoxy-2-methylpropan-2-yl)(methyl)amino)-2-oxoethylamino)cyclohexyl)methyl)benzamide] | 1580 nM | 420 nM |
| CC1(NC(=O)CN[C@H]2CC[C@H](CNC(=O)c3cc(F)cc(Cl)c3)CC2)CCC1 [Compound 202, 3-chloro-5-fluoro-N-(((1r,4r)-4-(2-(1-methylcyclobutylamino)-2-oxoethylamino)cyclohexyl)methyl)benzamide] | 970 nM | 310 nM |
| CCC(CC)NC(=O)CN[C@H]1CC[C@H](CNC(=O)c2cc(C(F)(F)F)cc(C(F)(F)F)c2)CC1 [Compound 57, N-((trans-4-(2-oxo-2-(pentan-3-ylamino)ethylamino)cyclohexyl)methyl)-3,5-bis(trifluoromethyl)benzamide] | ≤ 300 nM | 430 nM |
| CC(C)(C)NC(=O)CN[C@H]1CC[C@H](CNC(=O)c2cccc(OC(F)(F)F)c2)CC1 [Compound 189, N-(((1r,4r)-4-(2-(tert-butylamino)-2-oxoethylamino)cyclohexyl)methyl)-3-(trifluoromethoxy)benzamide] | 3660 nM | 1660 nM |
| Cc1cc(CN[C@H]2CC[C@@H](CNC(=O)c3cc(C(F)(F)F)cc(C(F)(F)F)c3)CC2)no1 [Compound 52, N-((cis-4-((5-methylisoxazol-3-yl)methylamino)cyclohexyl)methyl)-3,5-bis(trifluoromethyl)benzamide] | 1240 nM | 1330 nM |
| NC1(C(=O)N[C@H]2CC[C@H](CC(=O)Nc3cc(C(F)(F)F)cc(C(F)(F)F)c3)CC2)CCCCC1 [Compound 117, 1-amino-N-(trans-4-(2-(3,5-bis(trifluoromethyl)phenylamino)-2-oxoethyl)cyclohexyl)cyclohexanecarboxamide] | 1070 nM | ≥ 10000 nM |
| CC(C)(C)c1nc(CNC[C@H]2CC[C@H](NC(=O)c3cc(C(F)(F)F)cc(C(F)(F)F)c3)CC2)no1 [Compound 89, N-(trans-4-(((5-tert-butyl-1,2,4-oxadiazol-3-yl)methylamino)methyl)cyclohexyl)-3,5-bis(trifluoromethyl)benzamide] | 1370 nM | 1950 nM |
| O=C(NC[C@H]1CC[C@@H](NCc2ncccc2O)CC1)c1cc(F)cc(C(F)(F)F)c1 [Compound 16, 3-fluoro-N-((cis-4-((3-hydroxypyridin-2-yl)methylamino)cyclohexyl)methyl)-5-(trifluoromethyl)benzamide] | 4440 nM | ≥ 10000 nM |
| COc1cc(F)cc(C(=O)NC[C@H]2CC[C@H](NCC(=O)NC3(C)CCC3)CC2)c1 [Compound 207, 3-fluoro-5-methoxy-N-(((1r,4r)-4-(2-(1-methylcyclobutylamino)-2-oxoethylamino)cyclohexyl)methyl)benzamide] | 3820 nM | 920 nM |
| CC(C)(C)OC(=O)NCCN[C@H]1CC[C@@H](CNC(=O)c2cc(F)cc(C(F)(F)F)c2)CC1 [Compound 97, tert-butyl 2-(cis-4-((3-fluoro-5-(trifluoromethyl)benzamido)methyl)cyclohexylamino)ethylcarbamate] | 900 nM | 900 nM |
